Laboratory results reported in ChEMBL document CHEMBL4477257, “In vitro cytotoxicity of novel 2,5,7-tricarbo-substituted indoles derived from 2-amino-5-bromo-3-iodoacetophenone” (2016).
Activity calls are given as the source filed them. The rule behind the calls is not given here.

What was measured:
[1] = tested on: MCF7; assay: Cytotoxicity against human MCF7 cells assessed as reduction in cell viability after 2 days by MTT assay; format: functional; conditions: MCF7, 48 h, read-out: LC50 (the source's name)
[2] = tested on: HeLa; assay: Cytotoxicity against human HeLa cells assessed as reduction in cell viability after 2 days by MTT assay; format: functional; conditions: 48 h, read-out: LC50 (the source's name)
[3] = tested on: MCF7; assay: Cytotoxicity against human MCF7 cells assessed as cell viability at 10 uM after 2 days by MTT assay relative to control; format: functional; conditions: MCF7, 48 h, read-out: Activity
[4] = tested on: MCF7; assay: Cytotoxicity against human MCF7 cells assessed as cell viability at 1 uM after 2 days by MTT assay relative to control; format: functional; conditions: MCF7, 48 h, read-out: Activity
[5] = tested on: MCF7; assay: Cytotoxicity against human MCF7 cells assessed as cell viability at 100 uM after 2 days by MTT assay relative to control; format: functional; conditions: MCF7, 48 h, read-out: Activity
[6] = tested on: MCF7; assay: Cytotoxicity against human MCF7 cells assessed as cell viability at 0.1 uM after 2 days by MTT assay relative to control; format: functional; conditions: MCF7, 48 h, read-out: Activity
[7] = tested on: HeLa; assay: Cytotoxicity against human HeLa cells assessed as cell viability at 10 uM after 2 days by MTT assay relative to control; format: functional; conditions: 48 h, read-out: Activity
[8] = tested on: HeLa; assay: Cytotoxicity against human HeLa cells assessed as cell viability at 1 uM after 2 days by MTT assay relative to control; format: functional; conditions: 48 h, read-out: Activity
[9] = tested on: HeLa; assay: Cytotoxicity against human HeLa cells assessed as cell viability at 100 uM after 2 days by MTT assay relative to control; format: functional; conditions: 48 h, read-out: Activity
[10] = tested on: HeLa; assay: Cytotoxicity against human HeLa cells assessed as cell viability at 0.1 uM after 2 days by MTT assay relative to control; format: functional; conditions: 48 h, read-out: Activity
[11] = tested on: HeLa; assay: Induction of apoptosis in human HeLa cells assessed as necrotic cells at 10 uM after 48 hrs by Annexin V/propidium iodide staining based flow cytometric analysis (reference value: 21.45 +/- 0.78 %); format: functional
[12] = tested on: HeLa; assay: Induction of apoptosis in human HeLa cells assessed as necrotic cells at 5 uM after 48 hrs by Annexin V/propidium iodide staining based flow cytometric analysis (reference value: 21.45 +/- 0.78 %); format: functional
[13] = tested on: HeLa; assay: Induction of apoptosis in human HeLa cells assessed as necrotic cells at 2.5 uM after 48 hrs by Annexin V/propidium iodide staining based flow cytometric analysis (reference value: 21.45 +/- 0.78 %); format: functional
[14] = tested on: HeLa; assay: Induction of apoptosis in human HeLa cells assessed as late apoptotic cells at 10 uM after 48 hrs by Annexin V/propidium iodide staining based flow cytometric analysis (reference value: 31.80 +/- 0.25 %); format: functional
[15] = tested on: HeLa; assay: Induction of apoptosis in human HeLa cells assessed as late apoptotic cells at 5 uM after 48 hrs by Annexin V/propidium iodide staining based flow cytometric analysis (reference value: 31.80 +/- 0.25 %); format: functional
[16] = tested on: HeLa; assay: Induction of apoptosis in human HeLa cells assessed as late apoptotic cells at 2.5 uM after 48 hrs by Annexin V/propidium iodide staining based flow cytometric analysis (reference value: 31.80 +/- 0.25 %); format: functional
[17] = tested on: HeLa; assay: Induction of apoptosis in human HeLa cells assessed as viable cells at 10 uM after 48 hrs by Annexin V/propidium iodide staining based flow cytometric analysis (reference value: 46.00 +/- 0.56 %); format: functional; conditions: read-out: Activity
[18] = tested on: HeLa; assay: Induction of apoptosis in human HeLa cells assessed as viable cells at 5 uM after 48 hrs by Annexin V/propidium iodide staining based flow cytometric analysis (reference value: 46.00 +/- 0.56 %); format: functional; conditions: read-out: Activity
[19] = tested on: HeLa; assay: Induction of apoptosis in human HeLa cells assessed as viable cells at 2.5 uM after 48 hrs by Annexin V/propidium iodide staining based flow cytometric analysis (reference value: 46.00 +/- 0.56 %); format: functional; conditions: read-out: Activity
[20] = tested on: HeLa; assay: Induction of apoptosis in human HeLa cells assessed as early apoptotic cells at 10 uM after 48 hrs by Annexin V/propidium iodide staining based flow cytometric analysis (reference value: 0.05 +/- 0.07 %); format: functional
[21] = tested on: HeLa; assay: Induction of apoptosis in human HeLa cells assessed as early apoptotic cells at 5 uM after 48 hrs by Annexin V/propidium iodide staining based flow cytometric analysis (reference value: 0.05 +/- 0.07 %); format: functional
[22] = tested on: HeLa; assay: Induction of apoptosis in human HeLa cells assessed as early apoptotic cells at 2.5 uM after 48 hrs by Annexin V/propidium iodide staining based flow cytometric analysis (reference value: 0.05 +/- 0.07 %); format: functional
[23] = tested on: HeLa; assay: Induction of apoptosis in human HeLa cells assessed as DNA fragmentation at 2.5 to 10 uM after 48 hrs by ethidium bromide staining based agarose gel electrophoresis; format: functional, cell-based
[24] = tested on: HeLa; assay: Induction of apoptosis in human HeLa cells assessed as caspase 3 activation at 2.5 to 10 uM after 24 hrs by colorimetric analysis; format: functional
[25] = tested on: HeLa; assay: Induction of apoptosis in human HeLa cells after 48 hrs by Annexin V/propidium iodide staining based flow cytometric analysis; format: functional, cell-based

Structure (SMILES) | CC50 [1] [µM] | CC50 [2] [µM] | viability at 10 µM [3] [%] | viability at 1 µM [4] [%] | viability at 100 µM [5] [%] | viability at 0.1 µM [6] [%] | viability at 10 µM [7] [%] | viability at 1 µM [8] [%] | viability at 100 µM [9] [%] | viability at 0.1 µM [10] [%] | further results
COc1ccc(-c2cc3cc(-c4ccccc4)cc(C(C)=O)c3[nH]2)cc1 | > 100 | 18.9 | 64.5 | 78.1 | 43.5 | 87 | 51.6 | 61.5 | 32.8 | 80.5 | –
COc1ccc(-c2cc3cc(/C=C/c4ccc(F)cc4)cc(C(C)=O)c3[nH]2)cc1 | 83 | 8.77 | 76.5 | 97.3 | 47.6 | 97.2 | 25.8 | 67 | 18.9 | 90.5 | –
CC(=O)c1cc(-c2ccc(F)cc2)cc2cc(-c3ccccc3)[nH]c12 | > 100 | 38 | 73.8 | 82.7 | 36.4 | 98.3 | 55.7 | 82.7 | 24.8 | 90.3 | –
CC(=O)c1cc(-c2ccc(F)cc2)cc2cc(-c3ccc(F)cc3)[nH]c12 | 87.4 | 13.8 | 90.6 | 93.2 | 20 | 99.8 | 47.4 | 71.6 | 9.31 | 90 | –
COc1ccc(-c2cc3cc(-c4ccc(F)cc4)cc(C(C)=O)c3[nH]2)cc1 | > 100 | 42.8 | 77.5 | 96.4 | 47 | 97.3 | 52 | 62.9 | 46.5 | 81 | –
COc1ccc(-c2cc(C(C)=O)c3[nH]c(-c4ccc(F)cc4)cc3c2)cc1 | 16.8 | 9.46 | 52.9 | 69.7 | 14.8 | 88.4 | 46.5 | 56.1 | 20.6 | 74.5 | –
CC(=O)c1cc(/C=C/c2ccc(F)cc2)cc2cc(-c3ccc(F)cc3)[nH]c12 | > 100 | 5.68 | 67.4 | 82 | 42.2 | 98.8 | 41.9 | 53.7 | 20.3 | 72.6 | Activity [11]: 64.1%; Activity [12]: 20.4%; Activity [13]: 14.35%; Activity [14]: 13.4%; Activity [15]: 44%; Activity [16]: 33.5%; viability at 10 µM [17]: 22.4%; viability at 5 µM [18]: 35.5%; viability at 2.5 µM [19]: 52.4%; Activity [20]: 0.35%; Activity [21]: 0.5%; Activity [22]: 0.2%; Activity [23]: Active; fold change (FC) [24]: 3
CC(=O)c1cc(/C=C/c2ccc(F)cc2)cc2cc(-c3ccccc3)[nH]c12 | 18.5 | 9.26 | 46.5 | 72.2 | 46.7 | 89.7 | 32.8 | 70 | 23.9 | 74.2 | –
CC(=O)c1cc(/C=C/c2ccccc2)cc2cc(-c3ccccc3)[nH]c12 | > 100 | 30.8 | 86.5 | 93.4 | 34.1 | 99.5 | 52.5 | 79.8 | 21.2 | 99 | –
COc1ccc(-c2cc(C(C)=O)c3[nH]c(-c4ccccc4)cc3c2)cc1 | 47.8 | 15.5 | 49.5 | 88.8 | 30.8 | 99.2 | 33.9 | 73.1 | 21.1 | 87.9 | –
COc1ccc(-c2cc(C(C)=O)c3[nH]c(-c4ccc(OC)cc4)cc3c2)cc1 | 25.2 | 7.13 | 56.4 | 62.6 | 39.9 | 96.5 | 37.1 | 60.2 | 20.2 | 74.5 | Activity [11]: 47.4%; Activity [12]: 42.65%; Activity [13]: 23.2%; Activity [14]: 47.75%; Activity [15]: 37.55%; Activity [16]: 12.9%; viability at 10 µM [17]: 3.7%; viability at 5 µM [18]: 20.4%; viability at 2.5 µM [19]: 65.2%; Activity [20]: 0.15%; Activity [21]: 0.15%; Activity [22]: 0.1%; Activity [23]: Active; fold change (FC) [24]: 4; Activity [25]: Dose-dependent effect
CC(=O)c1cc(/C=C/c2ccccc2)cc2cc(-c3ccc(F)cc3)[nH]c12 | > 100 | 16.1 | 69.5 | 86.9 | 50.1 | 98.4 | 51.9 | 60.5 | 24.2 | 82.2 | –
CC(=O)c1cc(-c2ccccc2)cc2cc(-c3ccccc3)[nH]c12 | > 100 | > 100 | 96.2 | 98.6 | 65.8 | 99.3 | 60.9 | 65.8 | 51.4 | 72.3 | –
CC(=O)c1cc(-c2ccccc2)cc2cc(-c3ccc(F)cc3)[nH]c12 | > 100 | > 100 | 91.9 | 96.8 | 73.3 | 98.5 | 76.9 | 85.1 | 68.3 | 91.1 | –
